Reference: ChEMBL document CHEMBL3988442, “University of Dundee, Small-Polar-MMV Screening Library” (2021)

Key:
[1] = test system: Schistosoma mansoni; assay: High throughput screening of compounds against Schistosoma mansoni motility; assay type: functional; parameters: dose or concentration left out as unconfirmed
[2] = microbe, parasite or virus in culture; conditions: Mycobacterium tuberculosis, 96 h, read-out: pIC50 (converted)
[3] = microbe, parasite or virus in culture; conditions: Mycobacterium tuberculosis, 72 h, read-out: pIC50 (converted)
[4] = target: ClpP1P2 (Mycobacterium tuberculosis (strain ATCC 25618 / H37Rv), UniProt P9WPC3+P9WPC5); assay: in vitro assay to detect presence of AMC directly proportional to the activity of ClpP1P2. GHDDI collaboration.; assay type: functional
[5] = test system: Plasmodium falciparum; assay: Calibr Malaria Delayed Death Assay SOP; assay type: functional, organism-based; conditions: for IC50: Plasmodium falciparum

Cc1cnc2c(c1NCc1ccncc1)c(=O)n(C)c(=O)n2C
Percent Effect [1]: -90.48%

O=C(c1cn(-c2cc(N3CCOCC3)ncn2)cn1)N1CCSCC1
Percent Effect [1]: -64.76%

COc1cccc(NC(=O)N(CCO)Cc2ccsc2)c1
Percent Effect [1]: -62.57%

O=C(c1cc(=O)[nH]c(=O)[nH]1)N1CCCCC1c1ccc(F)cc1 (stereo not drawn)
Percent Effect [1]: -6.768%

CNC(=O)CS(=O)(=O)C1CCN(S(=O)(=O)C2CC2)CC1
Percent Effect [1]: 7.856%

COC(=O)c1sccc1S(=O)(=O)NCC1(O)CCOc2ccccc21 (stereo not drawn)
Percent Effect [1]: -15.01%

CCOCCOc1ccccc1C(=O)N1CCCC(c2ncc[nH]2)C1 (stereo not drawn)
Percent Effect [1]: -53.5%

CN(C)C(CNC(=O)c1cccc(-n2cnnn2)c1)c1ccccc1Cl (stereo not drawn)
Percent Effect [1]: 53.46%

Cc1cnn(CC(C)NCc2nc(-c3cccnc3)no2)c1 (stereo not drawn)
Percent Effect [1]: -19.9%

Cc1cc(NC(=O)CCc2ccsc2)n(C)n1
Percent Effect [1]: 18.83%

CC(=O)N1CCC(C(=O)NCCN2CCC(C)CC2)CC1
Percent Effect [1]: 14.05%

Cc1nn(C)c(N2CCOCC2)c1CNC(C)c1cccnc1 (stereo not drawn)
Percent Effect [1]: -13.95%

NC(=O)c1cccc(CC2CCN(C(=O)CO)C2)c1 (stereo not drawn)
Percent Effect [1]: -14.33%

CNC(=O)CSc1cnn(CC(=O)Nc2cccc(Cl)c2C)c(=O)c1Cl
Percent Effect [1]: -12.29%

CC(C#N)CSc1ccccc1NCC(=O)Nc1ccc(F)cc1 (stereo not drawn)
Percent Effect [1]: 55.09%

Cl.NC(=O)COc1ccc(CNCc2ccc(F)cc2F)cc1
Percent Effect [1]: -10.97%

O=C(c1cccc(S(=O)(=O)NCCCc2ncc[nH]2)c1)N1CCOCC1
Percent Effect [1]: -82.46%

CCc1ccc(C(=O)Nc2ccc(CC3CC(=O)NC3=O)cc2)cc1 (stereo not drawn)
Percent Effect [1]: -47.76%

CSc1ncc(C(=O)N2C[C@H]3CC[C@@H]2CN(Cc2ccccc2)C3)cn1
Percent Effect [1]: -35.01%

CC(=O)N1CCC(Oc2ccc(C#N)cn2)CC1
Percent Effect [1]: -36.18%

Cc1n[nH]c(C2CN(CC(=O)NCCc3ccsc3)CCO2)n1 (stereo not drawn)
Percent Effect [1]: -117.4%

Cc1nn(C)c(N(C)C)c1CNCC(O)c1ccccc1 (stereo not drawn)
Percent Effect [1]: -48.71%

O=C(NCC1CC1)C1CSCN1S(=O)(=O)c1cccc(F)c1 (stereo not drawn)
Percent Effect [1]: -77.75%

COc1ccc(-n2nnc(C(=O)NC(C)C)c2C2CC2)cc1
Percent Effect [1]: 0.8394%

CN(C)S(=O)(=O)N1C[C@@H]2CC[C@H](C1)N(Cc1ccc3nsnc3c1)C2
Percent Effect [1]: -23.4%

Cc1nc(C2CCCN(C(=O)c3scnc3C)C2)no1 (stereo not drawn)
Percent Effect [1]: 18.51%

CCC1c2cccn2CCN1C(=O)c1ccc2nonc2c1 (stereo not drawn)
Percent Effect [1]: -19.69%

CS(=O)(=O)c1ccc(CNCC2CCN(CCO)CC2)cc1
Percent Effect [1]: -49.34%

CC(C)n1ccc(-c2cc(C(=O)NC3CC3)c3ccccn23)n1
IC50 [2]: 14 µM
IC50 [3]: 16.5 µM
IC50 [4]: > 100 µM

COC(=O)CNC(=O)c1cn(-c2ccccn2)c(=O)c2ccccc12
IC50 [2]: > 50.1 µM
IC50 [3]: > 50.1 µM
IC50 [4]: > 100 µM

CCn1cncc1CN1CCN(CC2(c3ccc(C)cc3)CC2)CC1.Cl
pIC50 [5]: 6
IC50 [5]: 1.11 µM
IC50 [4]: > 100 µM

Cc1cc(C)c2cc(CNC3CCCCC3)c3nn(C)c(=O)n3c2c1
pIC50 [5]: 5.941
IC50 [5]: 1.04 µM
IC50 [4]: > 100 µM

O[C@@H]1CN(c2cnc3ccccc3n2)CC[C@H]1c1ccc2c(c1)OCO2
IC50 [2]: 2.21 µM
IC50 [3]: 3.18 µM
IC50 [4]: > 100 µM

OCC1(CC2CCCCO2)CCN(c2cnc3ccccc3n2)CC1 (stereo not drawn)
IC50 [2]: 10.7 µM
IC50 [3]: 13.4 µM
IC50 [4]: > 100 µM

COCCN1CCC(CNC(=O)C2(c3ccc(Br)cc3)CCCC2)C1 (stereo not drawn)
pIC50 [5]: 6.366
IC50 [5]: 0.541 µM
IC50 [4]: > 100 µM

CC(C)OCc1ccc(CNc2cncc(-n3cccn3)n2)cc1
IC50 [2]: 17 µM
IC50 [3]: > 50.1 µM
IC50 [4]: > 100 µM

CC(C)c1nc2c(n1C)CCN(CC(=O)Nc1cccnc1)C2
IC50 [4]: > 100 µM

COC(=O)[C@@H]1C[C@H](NC(=O)c2cc(=O)[nH]c3ccc(C)cc23)CN1C
IC50 [4]: > 100 µM

COCCN1CC(C(=O)NCc2cccnc2-n2cccn2)CC1=O (stereo not drawn)
IC50 [4]: > 100 µM

Cc1nc2oc(C(=O)N3CCOCC3)c(N)c2c2c1CCCC2
IC50 [4]: > 100 µM

COc1cccc(C(C)Nc2ncnc3c2NC(=O)CN3)c1 (stereo not drawn)
IC50 [2]: > 50.1 µM
IC50 [3]: > 50.1 µM
IC50 [4]: > 100 µM

CCc1nnc2n1CCN(C(=O)c1ccc(-c3ccco3)[nH]c1=O)C2
IC50 [4]: > 100 µM

Cn1ncc2c1CCCN(C(=O)C1CCCC1)C2
IC50 [4]: > 100 µM

CCn1nc(NC(=O)Cn2ccc(C(C)=O)n2)c2ccccc21
IC50 [4]: > 100 µM

Cc1cccc(-c2cc(-c3c(C)nn(CCO)c3C)c(C#N)c(N)n2)c1
IC50 [4]: > 100 µM

CC(C)C1Nc2ccccc2C(=O)N1CC(=O)Nc1nc2c(s1)CCC2 (stereo not drawn)
IC50 [4]: > 100 µM

Cc1ccc(CN(CC(=O)N2CCOC(C)C2)C2CC2)cc1 (stereo not drawn)
IC50 [4]: > 100 µM

CN1CCC(c2nccnc2Nc2cnccn2)CC1
IC50 [4]: > 100 µM

Cc1cc(C)n(CC2CCCN2CCCS(N)(=O)=O)n1 (stereo not drawn)
IC50 [4]: > 100 µM

CCc1nnc(CNC2CCCN(Cc3noc(C4CC4)n3)C2)o1 (stereo not drawn)
IC50 [4]: > 100 µM

CC(Cn1cccn1)NC(=O)Cc1csc(C(C)C)n1 (stereo not drawn)
IC50 [4]: > 100 µM

N#Cc1c(N)nc2c(c1C1CCOC1)CCc1cc(O)ccc1-2 (stereo not drawn)
IC50 [4]: > 100 µM

O=C(c1c2c(NCC3CC3)ncnc2n2ccccc12)N1CCCC1
IC50 [4]: > 100 µM

Cc1c[nH]nc1C1CCCN1Cc1nccn1C (stereo not drawn)
IC50 [4]: > 100 µM

CC(c1ccco1)N(C)Cc1cc2cc3c(cc2[nH]c1=O)OCO3 (stereo not drawn)
IC50 [4]: > 100 µM

CN1CCN(c2ncnc3c2c(C(=O)NC2CC2)c2ccccn23)CC1
IC50 [4]: > 100 µM

CC(=O)N1CCC(CCc2ccnc(NC(=O)c3ccccn3)c2)CC1
IC50 [4]: > 100 µM

O=C1CCc2cc(NC(=O)C3CCCN3c3nccs3)ccc2N1 (stereo not drawn)
IC50 [4]: > 100 µM

CCc1ccc(S(=O)(=O)N2CCCC3(CCCN3S(C)(=O)=O)C2)cc1 (stereo not drawn)
IC50 [4]: > 100 µM

Cc1nc(NCC2CC2)nc2c1COCC21CCN(C(=O)C(C)(C)C)C1 (stereo not drawn)
IC50 [4]: > 100 µM

CCNc1cc2c(nn1)CCN(C(=O)c1nccnc1N)C2
IC50 [4]: > 100 µM

Cc1nc(CN(C)C2CCN(Cc3ccc4c(c3)CCC4)C2)no1 (stereo not drawn)
IC50 [4]: > 100 µM

CCOC(=O)CN1CCC2(CC1)CC(=O)c1ccc3ccccc3c1O2
IC50 [4]: > 100 µM

Cc1cccc(CN(C(=O)NCc2ccccn2)C2CC2)c1
IC50 [4]: > 100 µM

O=C(c1c2c(N3CCOCC3)ncnc2n2ccccc12)N1CCCC1
IC50 [4]: > 100 µM

Cc1nc(NC(=O)CN2C(=O)c3ccccc3NC2C(C)C)sc1C (stereo not drawn)
IC50 [4]: > 100 µM

CC(C)(C)OC(=O)NCCNC(=O)c1ccc(-c2ccco2)[nH]c1=O
IC50 [4]: > 100 µM

CNC(=O)c1cc2c(nc1NCC(C)C)CCN(C)CC2
IC50 [4]: > 100 µM

Cc1nc(N2CCCC2C(=O)NC(C)(C)CO)nc2ccccc12 (stereo not drawn)
IC50 [4]: > 100 µM

CCc1nccn1CCC(=O)N1CCCC1c1cncc(NC)n1 (stereo not drawn)
IC50 [4]: > 100 µM

CCNc1cc2c(nn1)CCN(C(=O)c1ccoc1)C2
IC50 [4]: > 100 µM

Cc1cc(C)n(CC2CN(c3cnc4ccccc4n3)CCO2)n1 (stereo not drawn)
IC50 [4]: > 100 µM

CC(C)c1nc2oc(C(=O)N3CCOCC3)c(N)c2c2c1CCCC2
IC50 [4]: > 100 µM

CCN(CC)c1ccc(NS(=O)(=O)c2cnn(C(C)C)c2)cn1
IC50 [4]: > 100 µM

CN(C)Cc1cc(C2CCCCN2S(=O)(=O)Cc2ccccc2)nn1C (stereo not drawn)
IC50 [4]: > 100 µM

CS(=O)(=O)N1CC[C@]2(O)CCN(c3cc(C#N)ccn3)C[C@@H]2C1
IC50 [4]: > 100 µM

c1ccc(-n2cc(CN3CCCC3Cn3cccn3)nn2)cc1 (stereo not drawn)
IC50 [4]: > 100 µM

CC/N=c1\nc(NCC)nc2n1C(O)(Nc1cc(Cl)ccc1Cl)CS2 (stereo not drawn)
IC50 [4]: > 100 µM

CC(C)n1c2ccccc2c2c1cc(C(=O)N(C)C)n2C(=O)N(C)C
IC50 [4]: > 100 µM

Cc1cc(C)n(-c2cncc(NCCNC(=O)C(C)(C)C)n2)n1
IC50 [4]: > 100 µM

O=C(NCC1CC1)c1c2c(N3CCCC3)ncnc2n2ccccc12
IC50 [4]: > 100 µM

CCN(CC1CCOC1)C(=O)c1cnc2onc(C)c2c1 (stereo not drawn)
IC50 [4]: > 100 µM

CN(C)c1cc(C(F)(F)F)cc(-c2ccc(C(=O)O)cc2)n1
IC50 [4]: > 100 µM

O=S(=O)(c1ccccc1)N1CCOCC(Cc2cccnc2)C1 (stereo not drawn)
IC50 [4]: > 100 µM

CC(C(=O)N1CCCN(c2ccccc2C#N)CC1)n1cccn1 (stereo not drawn)
IC50 [4]: > 100 µM

COCC(C)N1CCc2onc(-c3ccc(F)c(F)c3)c2C1 (stereo not drawn)
IC50 [4]: > 100 µM

CNc1cnc(CC2COCCN(CCOc3ccccc3)C2)cn1 (stereo not drawn)
IC50 [4]: > 100 µM

CC(C)c1ncc2c(n1)CN(Cc1nnc(Cc3ccccc3)o1)CC2
IC50 [4]: > 100 µM

CS(=O)(=O)NC1CCCN(C(=O)c2cccnc2)C1 (stereo not drawn)
IC50 [4]: > 100 µM

Cn1ccc(-c2cc(C(=O)N3CCC(C(N)=O)CC3)c3ccccn23)n1
IC50 [4]: > 100 µM

CCc1nccn1-c1cccc(C2CCCN2)n1 (stereo not drawn)
IC50 [4]: > 100 µM

Cc1nc(-c2ccsc2)ccc1C(=O)NCC(C)N1CCOCC1 (stereo not drawn)
IC50 [4]: > 100 µM

CC(c1ccncn1)N(C)Cc1cc2cc3c(cc2[nH]c1=O)OCO3 (stereo not drawn)
IC50 [4]: > 100 µM

Cc1ccc2cc(CN(C)Cc3ccccn3)c(=O)[nH]c2c1
IC50 [4]: > 100 µM

CC(C)c1nnc2n1CCN(C(=O)Cc1csc(C(C)(C)C)n1)C2
IC50 [4]: > 100 µM

Cc1cnn(CC2CCCCN2C(=O)c2nccnc2N)c1 (stereo not drawn)
IC50 [4]: > 100 µM

CS(=O)(=O)CCNC(=O)c1ccc(-c2ccco2)[nH]c1=O
IC50 [4]: > 100 µM

O=C(NCCOC1CCCCC1)c1ccc(-c2ccco2)[nH]c1=O
IC50 [4]: > 100 µM

CN(C)c1ncc(-c2cc(C(=O)NC(C)(C)CO)n(CC3CC3)c2)cn1
IC50 [4]: > 100 µM

Cc1cc2nc(C(C)C)cc(N(C)CC3CCN(C(C)C)C3)n2n1 (stereo not drawn)
IC50 [2]: > 50.1 µM
IC50 [3]: > 50.1 µM
IC50 [4]: > 100 µM

CNC(=O)c1cc2c(nc1NCC1CC1)CCN(S(=O)(=O)C1CC1)CC2
IC50 [4]: > 100 µM

Cc1cc(NCC(=O)N(C)C)c(C(N)=O)cc1F
IC50 [4]: > 100 µM

CC1CCN(C(=O)c2cnn3c(-c4ccco4)ccnc23)CC1
IC50 [4]: > 100 µM

COc1ccc2cc(CN(C)CCc3cn[nH]c3)c(=O)[nH]c2c1
IC50 [4]: > 100 µM

CC(C)[C@H](Nc1cc(-c2ccncc2)nc2ccnn12)C(N)=O
IC50 [4]: > 100 µM

COc1ccc(C2Nc3cc(Cl)ccc3C3=NCCN32)cc1CO (stereo not drawn)
IC50 [4]: > 100 µM

CCn1cc(-c2cc(-c3cc(CC(=O)O)cs3)nc(N)c2C#N)c(C)n1
IC50 [4]: > 100 µM

CN(C)C(=O)CN1CCC2(CC1)CC(=O)c1ccc3ccccc3c1O2
IC50 [4]: > 100 µM
